Assay results published in patent US20220119354A1, “DIAMINO-SUBSTITUTED PYRIDINES AND PYRIMIDINES AS HERBICIDES” (FMC Corporation, priority 2019, published 2022).

Key:
Format in all cases: in vivo
[1] = test system: barnyardgrass (Echinochloa crus-galli); assay: Test A preemergence, barnyardgrass; conditions: 0 to 100 scale; for Barnyardgrass plant response rating: 0 is no effect, 100 is complete control
Source text: (§1) Seeds of plant species selected from barnyardgrass (Echinochloa crus-galli), kochia (Kochia scoparia), ragweed (common ragweed, Ambrosia elatior), ryegrass, Italian (Lolium multiflorum), foxtail, giant (Setaria faberii), foxtail, green (Setaria viridis), and pigweed (Amaranthus retroflexus) were planted into a blend of loam soil and sand and treated preemergence with a directed soil spray using test chemicals formulated in a non-phytotoxic solvent mixture which included a surfactant.
(§2) At the same time, plants selected from these weed species and also wheat (Triticum aestivum), corn (Zea mays), blackgrass (Alopecurus myosuroides), and galium (catchweed bedstraw, Galium aparine) were planted in pots containing the same blend of loam soil and sand and treated with postemergence applications of test chemicals formulated in the same manner. Plants ranged in height from 2 to 10 cm and were in the one- to two-leaf stage for the postemergence treatment. Treated plants and untreated controls were maintained in a greenhouse for approximately 10 d, after which time all treated plants were compared to untreated controls and visually evaluated for injury. Plant response ratings, summarized in Table A, are based on a 0 to 100 scale where 0 is no effect and 100 is complete control. A dash (-) response means no test result.

[2] = test system: ryegrass, Italian (Lolium multiflorum); assay: Test A preemergence, Italian ryegrass; conditions: 0 to 100 scale; for Ryegrass, Italian plant response rating: 0 is no effect, 100 is complete control
Source text: as §1, §2

[3] = test system: galium (catchweed bedstraw, Galium aparine); assay: Test A postemergence, galium; conditions: 0 to 100 scale
Source text: as §1, §2

kochia (Kochia scoparia) [4] = assay: Test A preemergence, kochia; conditions: 0 to 100 scale; for Kochia plant response rating: 0 is no effect, 100 is complete control
Source text: as §1, §2

[5] = test system: wheat (Triticum aestivum); assay: Test A postemergence, wheat; conditions: 0 to 100 scale
Source text: as §1, §2

[6] = test system: sedge, umbrella (small-flower umbrella sedge, Cyperus difformis); assay: Test B flooded paddy test, umbrella sedge; conditions: Flood, 250 g ai/ha, applied to paddy water, 2-leaf stage, visual evaluation after 13 to 15 d
Procedure: (§3) Plant species in the flooded paddy test selected from rice (Oryza sativa), sedge, umbrella (small-flower umbrella sedge, Cyperus difformis), ducksalad (Heteranthera limosa), and barnyardgrass (Echinochloa crus-galli) were grown to the 2-leaf stage for testing. At the time of treatment, test pots were flooded to 3 cm above the soil surface, treated by application of test compounds directly to the paddy water, and then maintained at that water depth for the duration of the test. Treated plants and controls were maintained in a greenhouse for 13 to 15 d, after which time all species were compared to controls and visually evaluated. Plant response ratings, summarized in Table B, are based on a scale of 0 to 100 where 0 is no effect and 100 is complete control. A dash (-) response means no test result.

[7] = test system: foxtail, giant (Setaria faberii); assay: Test A postemergence, giant foxtail; conditions: 0 to 100 scale
Source text: as §1, §2

[8] = test system: pigweed (Amaranthus retroflexus); assay: Test A preemergence, pigweed; conditions: 0 to 100 scale; for Pigweed plant response rating: 0 is no effect, 100 is complete control
Source text: as §1, §2

rice (Oryza sativa) = assay: Test B flooded paddy test, rice; conditions: Flood, 250 g ai/ha, applied to paddy water, 2-leaf stage, visual evaluation after 13 to 15 d
Procedure: as §3

[9] = test system: ducksalad (Heteranthera limosa); assay: Test B flooded paddy test, ducksalad; conditions: Flood, 250 g ai/ha, applied to paddy water, 2-leaf stage, visual evaluation after 13 to 15 d
Procedure: as §3

kochia (Kochia scoparia) [10] = assay: Test A postemergence, kochia; conditions: 0 to 100 scale
Source text: as §1, §2

[11] = test system: ragweed (common ragweed, Ambrosia elatior); assay: Test A postemergence, ragweed; conditions: 0 to 100 scale
Source text: as §1, §2

[12] = test system: barnyardgrass (Echinochloa crus-galli); assay: Test B flooded paddy test, barnyardgrass; conditions: Flood, 250 g ai/ha, applied to paddy water, 2-leaf stage, visual evaluation after 13 to 15 d
Procedure: as §3

[13] = test system: blackgrass (Alopecurus myosuroides); assay: Test A postemergence, blackgrass; conditions: 0 to 100 scale
Source text: as §1, §2

[14] = test system: foxtail, giant (Setaria faberii); assay: Test A preemergence, giant foxtail; conditions: 0 to 100 scale; for Foxtail, Giant plant response rating: 0 is no effect, 100 is complete control
Source text: as §1, §2

[15] = test system: ragweed (common ragweed, Ambrosia elatior); assay: Test A preemergence, ragweed; conditions: 0 to 100 scale, 0 is no effect, 100 is complete control
Source text: as §1, §2

corn (Zea mays) = assay: Test A postemergence, corn; conditions: 0 to 100 scale
Source text: as §1, §2

[16] = test system: pigweed (Amaranthus retroflexus); assay: Test A postemergence, pigweed; conditions: 0 to 100 scale
Source text: as §1, §2

[17] = test system: ryegrass, Italian (Lolium multiflorum); assay: Test A postemergence, Italian ryegrass; conditions: 0 to 100 scale
Source text: as §1, §2

[18] = test system: barnyardgrass (Echinochloa crus-galli); assay: Test A postemergence, barnyardgrass; conditions: 0 to 100 scale
Source text: as §1, §2

[19] = 125 g ai/ha, 0 no effect, 100 complete control
[20] = 500 g ai/ha, 0 no effect, 100 complete control

Cc1ccc2c([C@H](Nc3ncc(C(F)(F)F)c(N)n3)C3CC3)coc2c1 [Compound 90]
Barnyardgrass plant response rating ([1]; 125 g ai/ha): 0
Barnyardgrass plant response rating ([1]; 500 g ai/ha): 80
Ryegrass, Italian plant response rating ([2]; 125 g ai/ha): 30
Ryegrass, Italian plant response rating ([2]; 500 g ai/ha): 50
Plant response rating, Galium [3, 19]: 40
Plant response rating, Galium [3, 20]: 70
Kochia plant response rating (kochia (Kochia scoparia) [4]; 125 g ai/ha): 0
Kochia plant response rating (kochia (Kochia scoparia) [4]; 500 g ai/ha): 90
Plant response rating, Wheat [5, 19]: 0
Plant response rating, Wheat [5, 20]: 30
Plant response rating, Sedge, Umbrella (0 to 100 scale, 0 is no effect, 100 is complete control) [6]: 20
Plant response rating, Foxtail, Giant [7, 19]: 0
Plant response rating, Foxtail, Giant [7, 20]: 50
Pigweed plant response rating ([8]; 125 g ai/ha): 70
Pigweed plant response rating ([8]; 500 g ai/ha): 100
Plant response rating, Rice (0 to 100 scale, 0 is no effect, 100 is complete control) (rice (Oryza sativa)): 0
Plant response rating, Ducksalad (0 to 100 scale, 0 is no effect, 100 is complete control) [9]: 25
Plant response rating, Kochia (kochia (Kochia scoparia) [10]; [19]): 20
Plant response rating, Kochia (kochia (Kochia scoparia) [10]; [20]): 90
Plant response rating, Ragweed [11, 19]: 30
Plant response rating, Ragweed [11, 20]: 70
Plant response rating, Barnyardgrass (0 to 100 scale, 0 is no effect, 100 is complete control) [12]: 40
Plant response rating, Blackgrass [13, 19]: 0
Plant response rating, Blackgrass [13, 20]: 60
Foxtail, Giant plant response rating ([14]; 125 g ai/ha): 70
Foxtail, Giant plant response rating ([14]; 500 g ai/ha): 100
Ragweed plant response rating ([15]; 125 g ai/ha): 50
Ragweed plant response rating ([15]; 500 g ai/ha): 100
Plant response rating, Corn (corn (Zea mays); [19]): 0
Plant response rating, Corn (corn (Zea mays); [20]): 0
Plant response rating, Pigweed [16, 19]: 60
Plant response rating, Pigweed [16, 20]: 100
Plant response rating, Ryegrass, Italian [17, 19]: 30
Plant response rating, Ryegrass, Italian [17, 20]: 40

C[C@@H](Nc1ncc(C(F)(F)F)c(N)n1)c1cc2cc(F)c(F)cc2o1 [Compounds 30]
Plant response rating, Barnyardgrass ([1]; 125 g ai/ha): 0
Plant response rating, Barnyardgrass ([1]; 500 g ai/ha): 80
Plant response rating, Ryegrass, Italian ([2]; 125 g ai/ha): 0
Plant response rating, Ryegrass, Italian ([2]; 500 g ai/ha): 0
Plant response rating, Galium ([3]; 125 g ai/ha): 50
Plant response rating, Galium ([3]; 500 g ai/ha): 60
Plant response rating, Kochia (kochia (Kochia scoparia) [4]; 125 g ai/ha): 0
Plant response rating, Kochia (kochia (Kochia scoparia) [4]; 500 g ai/ha): 30
Plant response rating, Wheat ([5]; 125 g ai/ha): 0
Plant response rating, Wheat ([5]; 500 g ai/ha): 0
Plant response rating, Sedge, Umbrella (0 to 100 scale, 0 is no effect, 100 is complete control) [6]: 80
Plant response rating, Foxtail, Giant ([7]; 125 g ai/ha): 0
Plant response rating, Foxtail, Giant ([7]; 500 g ai/ha): 30
Plant response rating, Pigweed ([8]; 125 g ai/ha): 40
Plant response rating, Pigweed ([8]; 500 g ai/ha): 100
Plant response rating, Barnyardgrass ([18]; 125 g ai/ha): 0
Plant response rating, Barnyardgrass ([18]; 500 g ai/ha): 30
Plant response rating, Rice (0 to 100 scale, 0 is no effect, 100 is complete control) (rice (Oryza sativa)): 0
Plant response rating, Ducksalad (0 to 100 scale, 0 is no effect, 100 is complete control) [9]: 0
Plant response rating, Kochia (kochia (Kochia scoparia) [10]; 125 g ai/ha): 20
Plant response rating, Kochia (kochia (Kochia scoparia) [10]; 500 g ai/ha): 80
Plant response rating, Ragweed ([11]; 125 g ai/ha): 20
Plant response rating, Ragweed ([11]; 500 g ai/ha): 80
Plant response rating, Barnyardgrass (0 to 100 scale, 0 is no effect, 100 is complete control) [12]: 0
Plant response rating, Blackgrass ([13]; 125 g ai/ha): 0
Plant response rating, Blackgrass ([13]; 500 g ai/ha): 0
Plant response rating, Foxtail, Giant ([14]; 125 g ai/ha): 0
Plant response rating, Foxtail, Giant ([14]; 500 g ai/ha): 70
Plant response rating, Corn (corn (Zea mays); 125 g ai/ha): 10
Plant response rating, Corn (corn (Zea mays); 500 g ai/ha): 0
Plant response rating, Pigweed ([16]; 125 g ai/ha): 100
Plant response rating, Pigweed ([16]; 500 g ai/ha): 100
Plant response rating, Ryegrass, Italian ([17]; 125 g ai/ha): 0
Plant response rating, Ryegrass, Italian ([17]; 500 g ai/ha): 0
